Literature values as cited in PMC8170883 (Viruses, 2021).

How the values were obtained:
SARS-Cov-2 = settings: cell cultures
SARS-CoV-2 nsp12 (RdRp) = settings: blocks binding of RNA to the enzyme

Structure (SMILES) | Antiviral effect against SARS-CoV-2 (SARS-Cov-2) | Inhibition of RdRp (SARS-CoV-2 nsp12 (RdRp))
Cc1ccc(C(=O)Nc2ccc(S(=O)(=O)O)c3cc(S(=O)(=O)O)cc(S(=O)(=O)O)c23)cc1NC(=O)c1cccc(NC(=O)Nc2cccc(C(=O)Nc3cc(C(=O)Nc4ccc(S(=O)(=O)O)c5cc(S(=O)(=O)O)cc(S(=O)(=O)O)c45)ccc3C)c2)c1 [Suramin] | antiviral effects | potent inhibitor
CCN(CC)CCCC(C)Nc1ccnc2cc(Cl)ccc12 (stereo not shown) [Chloroquine, chloroquine] | antiviral effects | –
CCN(CC)CCCC(C)Nc1c2ccc(Cl)cc2nc2ccc(OC)cc12 (stereo not shown) [Quinacrine, quinacrine] | antiviral effects | –
